Patent US20070066512A1, “Methods and compositions using immunomodulatory compounds for the treatment of disorders associated with low plasma leptin levels” (priority 2005, published 2007)

Experiments:
[1] = cited from earlier work; for interconversion of polymorphic form: aqueous solvent systems or higher relative humidities; for hygroscopicity of polymorphic form: crystalline form of 3-(4-amino-1-oxo-1,3 dihydro-isoindol-2-yl)-piperidene-2,6-dione
MSCs [2] = experiment: MSC viability (XTT assay); type: cell-based, Human; conditions: MSCs treated for 2 days vs DMSO
Procedure: (§1) MSC viability was assayed using cell proliferation kit II (XTT) (Roche, Indianapolis, Ind.). MSC proliferation was assayed using 5-bromo-2′-deoxy-uridine labeling and detection kit III (BrdU) (Roche, Indianapolis, Ind.). MSCs have been seeded in 96 well plates and expanded for 2 days in presence of DMSO or varying concentrations of an immunomodulatory compound. XTT and BrdU were added to the cells for 20 hours. The viability and proliferation of MSCs were assayed following manufacturer's instructions.

MSCs [3] = experiment: MSC proliferation (BrdU incorporation assay); type: cell-based, Human; conditions: MSCs treated for 2 days vs DMSO
Procedure: as §1

adiponectin mRNA = experiment: Northern blot of adiponectin mRNA in MSC-derived adipocytes; type: cell-based, Human; conditions: adipocytes treated with compound vs DMSO; GAPDH control unchanged
Procedure: (§2) Human Mesenchymal Stem Cell (MSC) and adipocyte differentiation media were obtained from Cambrex (Walkersville, Md.). MSCs were seeded in 24 well plates at 40,000 cells per well in MSC Basic Medium (MSCBM), supplemented with 10% serum and expanded for 7 days. At 100% of confluence, three cycles of induction/maintenance stimulated adipogetic differentiation. Each cycle consisted feeding MSCs with Adipogenic Induction Medium (AIM) for 3 days, followed by 1 day of culture in Adipogenic Maintenance Medium (AMM). AIM and AMM contained 10% serum, Pen-Sterep and L-Glu, supplemented with insulin, dexamethasone, indomethacin and IBMX, or insulin only. After 3 complete cycles of induction/maintenance, MSCs are cultured for 3 more days in AMM and analyzed.
(§3) To study the effects of immunomodulatory compounds on adipocyte differentiation, MSCs were differentiated in the presence of DMSO or varying concentrations of an immunomodulatory compound. DMSO and immunomodulatory compounds were added to the medium during the differentiation and maintenance steps. Phenotypic characterization of the cells for adipocyte markers, such as triglyceride content and adipokine secretion, was performed.
(§4) RNAs from MSC-derived adipocytes were isolated with RNeasy lipid tissue kit (Qiagen, Valencia, Calif.). […]

leptin mRNA = experiment: Northern blot of leptin mRNA in MSC-derived adipocytes; type: cell-based, Human; conditions: adipocytes treated with compound vs DMSO; GAPDH control unchanged
Procedure: as §2, §3, §4

[4] = test system: adiponectin secretion in adipocytes; experiment: Adiponectin secretion of adipocytes (quantikine human adiponectin immunoassay); type: cell-based; conditions: adipocytes differentiated in presence of compound
Procedure: as §2
To study the effects of immunomodulatory compounds on adipocyte differentiation, MSCs were differentiated in the presence of DMSO or varying concentrations of an immunomodulatory compound. […]
Leptin and adiponectin were measured using the quantikine human leptin and human adiponectin immunoassay kits (R&D Systems, Minneapolis, Minn.). To measure leptin secretion, 100 μl of medium was collected from the cell plates, diluted 2 or 5 times depending on the collecting time during the differentiation process, and analyzed following the manufacturer's protocols. […] For adiponectin secretion, 50 μl of medium was collected and directly analyzed.

[5] = test system: leptin secretion in adipocytes; experiment: Leptin secretion of adipocytes (quantikine human leptin immunoassay); type: cell-based; conditions: for concentration giving maximum of dose dependent leptin secretion response: adipocytes differentiated in presence of compound; for dexamethasone induced leptin secretion (FIG. 3C): dexamethasone added to the cells for 15 hours at the end of differentiation
Procedure: as §2, §3
Leptin and adiponectin were measured using the quantikine human leptin and human adiponectin immunoassay kits (R&D Systems, Minneapolis, Minn.). To measure leptin secretion, 100 μl of medium was collected from the cell plates, diluted 2 or 5 times depending on the collecting time during the differentiation process, and analyzed following the manufacturer's protocols. Results were corrected for the dilution factor. For adiponectin secretion, 50 μl of medium was collected and directly analyzed.

[6] = test system: adipocytes differentiated from Human Mesenchymal Stem Cell (MSC); experiment: Triglyceride accumulation in MSC-derived adipocytes (microscopy, Oil Red O staining); type: cell-based; conditions: for triglyceride accumulation quantified by Oil Red O staining (FIG. 2B): cells cultured with compound vs DMSO
Procedure: as §2, §3
Fat content in adipocyte was quantified by Oil Red O staining. Cells were washed with PBS and fixed with 3.7% formaldehyde for 15 minutes. Lipid vacuoles were stained with 0.5% Oil Red O in 60% isopropanol for 30 minutes at 37° C. Cells were then washed three times with water and Oil Red O content was dissolved into 100% propanol. The optical density of the solution was measured at 510 nm.

Structure (SMILES) | interconversion of polymorphic form [1] | hygroscopicity of polymorphic form [1] | cell viability (XTT, FIG. 6) (MSCs [2]) | cell proliferation (BrdU incorporation, FIG. 6) (MSCs [3]) | level of adiponectin mRNAs (northern blot, FIG. 5) (adiponectin mRNA) | level of leptin mRNAs (northern blot, FIG. 5) (leptin mRNA) | adiponectin secretion vs cells differentiated in DMSO (FIG. 4) [4] | concentration giving maximum of dose dependent leptin secretion response [5] | dexamethasone induced leptin secretion (FIG. 3C) [5] | triglyceride accumulation quantified by Oil Red O staining (FIG. 2B) [6] | also measured
Nc1cccc2c1CN(C1CCC(=O)NC1=O)C2=O (centres unmarked) [Form C, 3-(4-amino-1-oxo-1,3 dihydro-isoindol-2-yl)-piperidene-2,6-dione] | can convert to Form B at higher relative humidities | not hygroscopic below about 85% RH | – | – | – | – | – | – | – | – | –
Nc1cccc2c1CN(C1CCC(=O)NC1=O)C2=O (centres unmarked) [Form D, 3-(4-amino-1-oxo-1,3 dihydro-isoindol-2-yl)-piperidene-2,6-dione] | will typically convert to Form B when stressed at higher relative humidities | either weakly or not hygroscopic | – | – | – | – | – | – | – | – | –
Nc1cccc2c1CN(C1CCC(=O)NC1=O)C2=O (centres unmarked) [1-oxo-(2,6-dioxopiperidin-3-yl)-4-aminoisoindoline] | – | – | neither 1-oxo-(2,6-dioxopiperidin-3-yl)-4-aminoisoindoline nor 1,3-dioxo-(2,6-dioxopiperidin-3-yl)-4-aminoisoindoline caused significant change | neither 1-oxo-(2,6-dioxopiperidin-3-yl)-4-aminoisoindoline nor 1,3-dioxo-(2,6-dioxopiperidin-3-yl)-4-aminoisoindoline caused significant change | dose-dependent decrease | dose-dependently increase | lower levels of adiponectin secretion | 25 µM | enhanced dexamethasone induced leptin secretion | no significant difference | leptin secretion vs cells differentiated in DMSO (FIG. 3A) ([5]; adipocytes differentiated in presence of 2.5, 10, 25, or 50 μM): secreted higher levels of leptin; ability of the cells to accumulate triglyceride (microscopy, FIG. 2A) ([6]; cells differentiated with compound vs DMSO, lipid vacuoles observed): does not alter the ability of the cells to accumulate triglyceride
Nc1cccc2c1CN(C1CCC(=O)NC1=O)C2=O (centres unmarked) [Form B, 3-(4-amino-1-oxo-1,3 dihydro-isoindol-2-yl)-piperidene-2,6-dione] | converts to Form E in aqueous solvent systems | – | – | – | – | – | – | – | – | – | –
Nc1cccc2c1CN(C1CCC(=O)NC1=O)C2=O (centres unmarked) [Form A, 3-(4-amino-1-oxo-1,3 dihydro-isoindol-2-yl)-piperidene-2,6-dione] | – | weakly or not hygroscopic | – | – | – | – | – | – | – | – | relative stability of polymorphic form ([1]; Form A: among anhydrous polymorphs, Form E: in aqueous solvent systems): most thermodynamically stable anhydrous polymorph
Nc1cccc2c1C(=O)N(C1CCC(=O)NC1=O)C2=O (centres unmarked) [1,3-dioxo-(2,6-dioxopiperidin-3-yl)-4-aminoisoindoline] | – | – | neither 1-oxo-(2,6-dioxopiperidin-3-yl)-4-aminoisoindoline nor 1,3-dioxo-(2,6-dioxopiperidin-3-yl)-4-aminoisoindoline caused significant change | neither 1-oxo-(2,6-dioxopiperidin-3-yl)-4-aminoisoindoline nor 1,3-dioxo-(2,6-dioxopiperidin-3-yl)-4-aminoisoindoline caused significant change | dose-dependent decrease | dose-dependently increase | lower levels of adiponectin secretion | 10 µM | enhanced dexamethasone induced leptin secretion | no significant difference | leptin secretion vs cells differentiated in DMSO (FIG. 3B) ([5]; adipocytes differentiated in presence of 0. 1, 1, 2.5, or 10 μM): a similar result was observed
